We go through six compounds from ChEMBL document CHEMBL4138253, “Synthesis and Biological Evaluation of a Series of Bile Acid Derivatives as FXR Agonists for Treatment of NASH” (ACS Med Chem Lett, 2017).

Structures are written as SMILES.

Data set [1] has as its target T1, Bile acid receptor (Homo sapiens, UniProt Q96RI1).
T1 sequence (Q96RI1 whole entry): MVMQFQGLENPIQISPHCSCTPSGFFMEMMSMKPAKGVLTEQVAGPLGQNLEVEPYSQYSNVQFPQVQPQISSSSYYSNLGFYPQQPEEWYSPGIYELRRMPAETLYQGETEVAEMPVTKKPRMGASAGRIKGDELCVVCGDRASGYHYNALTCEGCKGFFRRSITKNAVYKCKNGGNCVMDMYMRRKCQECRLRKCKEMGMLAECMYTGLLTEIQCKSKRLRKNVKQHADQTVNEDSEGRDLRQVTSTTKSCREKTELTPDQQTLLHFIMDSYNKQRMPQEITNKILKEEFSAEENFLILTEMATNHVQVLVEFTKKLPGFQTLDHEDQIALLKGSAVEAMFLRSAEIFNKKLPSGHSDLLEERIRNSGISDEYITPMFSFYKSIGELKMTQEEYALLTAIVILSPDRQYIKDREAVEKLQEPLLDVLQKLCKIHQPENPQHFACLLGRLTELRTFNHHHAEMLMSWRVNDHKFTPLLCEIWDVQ
The data set can be described thus: Agonist activity at recombinant human GST-tagged FXR LBD (193 to 472 residues) expressed in baculovirus-infected insect cells assessed as recruitment of biotinylated SRC1 peptide measured after 1 hr by Alphascreen assay. For orientation: In Alpha technology, singlet oxygen from a donor bead excites a nearby acceptor bead.

For data set [2], the target named is T2, G-protein coupled bile acid receptor 1 (Homo sapiens, UniProt Q8TDU6).
T2 sequence (Q8TDU6 whole entry): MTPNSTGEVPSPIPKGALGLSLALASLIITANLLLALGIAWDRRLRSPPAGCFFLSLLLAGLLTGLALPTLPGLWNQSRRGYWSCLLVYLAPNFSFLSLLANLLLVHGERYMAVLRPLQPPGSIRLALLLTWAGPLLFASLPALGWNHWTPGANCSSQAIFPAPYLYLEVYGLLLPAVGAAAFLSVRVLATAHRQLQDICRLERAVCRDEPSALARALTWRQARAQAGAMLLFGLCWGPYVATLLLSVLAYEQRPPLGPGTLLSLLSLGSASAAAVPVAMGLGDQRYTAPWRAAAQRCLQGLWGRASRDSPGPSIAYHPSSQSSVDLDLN
The experiment in a line: Agonist activity at human TGR5 expressed in HEK293 cells assessed as increase in intracellular cAMP level after 1 hr by TR-FRET assay. The format is functional, cell-based. (cAMP levels reflect the balance of adenylyl cyclase and phosphodiesterase activity.)

Data set [3] can be described thus: Drug level in C57BL/6 mouse liver at 2 mg/kg, po administered as single cassette dose via gavage measured at 0.5 hrs post dose by LC-MS/MS analysis. The format is ADME, organism-based. The settings on record: in vivo.
Data set [4] in a line: Drug level in C57BL/6 mouse liver at 2 mg/kg, po administered as single cassette dose via gavage measured at 3 hrs post dose by LC-MS/MS analysis. As to conditions: in vivo; call rule not given here. The format is ADME, organism-based.
A short description of data set [5]: Drug level in C57BL/6 mouse plasma at 2 mg/kg, po administered as single dose via gavage measured at 0.5 hrs post dose by LC-MS/MS analysis. The class given is ADME, organism-based.
Data set [6] can be described thus: Drug level in C57BL/6 mouse plasma at 2 mg/kg, po administered as single cassette dose via gavage measured at 3 hrs post dose by LC-MS/MS analysis. The class given is ADME, organism-based.
Data set [7] is described as follows: Ratio of drug level in liver to plasma in C57BL/6 mouse at 2 mg/kg, po administered as single cassette dose via gavage measured at 0.5 hrs post dose. The class given is ADME, organism-based.
Data set [8] in a line: Ratio of drug level in liver to plasma in C57BL/6 mouse at 2 mg/kg, po administered as single cassette dose via gavage measured at 3 hrs post dose. The class given is ADME, organism-based.
In data set [9] the target is T3, Bile acid receptor (Homo sapiens) (UniProt Q96RI1).
T3 sequence (whole entry): T1 sequence (Q96RI1 whole entry)
The data set can be described thus: Agonist activity at recombinant human GST-tagged FXR LBD (193 to 472 residues) expressed in baculovirus-infected insect cells assessed as recruitment of biotinylated SRC1 peptide measured after 1 hr by Alphascreen assay relative to CDCA.

For the next data set, the species on record is Homo sapiens. The data set can be described thus: Selectivity ratio of EC50 for recombinant human GST-tagged FXR LBD (193 to 472 residues) expressed in baculovirus-infected insect cells to EC50 for human TGR5 expressed in HEK293 cells.
Data set [10] has as its target T1, Bile acid receptor. The experiment in a line: Agonist activity at FXR (unknown origin) measured after 16 hrs in presence of CCF4-AM dye by cell-based GeneBlazer FRET assay.
The target of data set [11] is T3, Bile acid receptor (Homo sapiens). The data set can be described thus: Agonist activity at FXR (unknown origin) measured after 16 hrs in presence of CCF4-AM dye by cell-based GeneBlazer FRET assay relative to CDCA.
Data set [12] concerns Mus musculus. The experiment in a line: Anti-hepatic steatosis activity in HFD/CCl4-induced non-alcoholic hepatic steatosis C57BL/6 mouse model assessed as reduction in liver fibrosis at 30 mg/kg, po administered once daily via gavage for 28 days measured at post last dose by sirus red staining based assay. The format is ADME, organism-based. As to conditions: in vivo, 672 h.

Data set [13] deals with Mus musculus. The experiment in a line: Anti-hepatic steatosis activity in HFD/CCl4-induced non-alcoholic hepatic steatosis C57BL/6 mouse model assessed as reduction in hepatic steatosis score at 30 mg/kg, po administered once daily via gavage for 28 days measured at post last dose by hematoxylin-eosin staining based assay. The format is ADME, organism-based. As to conditions: in vivo, 672 h.

Data set [14] can be described thus: AUC in C57BL/6 mouse at 10 mg/kg, po administered via gavage. The class given is ADME, organism-based. As to conditions: in vivo.
The subject of data set [15] is Mus musculus. The data set can be described thus: AUC in C57BL/6 mouse assessed as glyco-INT-747 level at 10 mg/kg, po administered via gavage. The class given is ADME, organism-based. As to conditions: in vivo, BLD = below limit of detection.
Data set [16] has as its system Mus musculus. The data set can be described thus: AUC in C57BL/6 mouse assessed as tauro-INT-747 level at 10 mg/kg, po administered via gavage. The class given is ADME, organism-based. As to conditions: in vivo.
Data set [17] is described as follows: Cmax in C57BL/6 mouse at 10 mg/kg, po administered via gavage. The format is ADME, organism-based. Set-up: dose 10 mg/kg, route oral. The settings on record: in vivo.
Data set [18] relates to Mus musculus. The experiment in a line: Cmax in C57BL/6 mouse assessed as glyco-INT-747 level at 10 mg/kg, po administered via gavage. The format is ADME, organism-based. Set-up: dose 10 mg/kg, route oral. As to conditions: in vivo, BLD = below limit of detection.
Data set [19] has as its system Mus musculus. The data set can be described thus: Cmax in C57BL/6 mouse assessed as tauro-INT-747 level at 10 mg/kg, po administered via gavage. As to conditions: in vivo. The format is ADME, organism-based. Also noted: dose 10 mg/kg, route oral.
Data set [20] in a line: Tmax in C57BL/6 mouse at 10 mg/kg, po administered via gavage. The format is ADME, organism-based. The settings on record: in vivo.
Data set [21] can be described thus: Drug level in C57BL/6 mouse liver at 10 mg/kg, po administered as single dose via gavage measured at 0.5 hrs post dose by LC-MS/MS analysis. As to conditions: in vivo. The format is ADME, organism-based.
Data set [22] deals with Mus musculus. The data set can be described thus: Tmax in C57BL/6 mouse assessed as tauro-INT-747 level at 10 mg/kg, po administered via gavage. As to conditions: in vivo. The class given is ADME, organism-based.
Data set [23] is described as follows: Drug level in C57BL/6 mouse liver at 10 mg/kg, po administered as single dose via gavage measured at 3 hrs post dose by LC-MS/MS analysis. The format is ADME, organism-based. The settings on record: in vivo.
The nature of data set [24]: Drug level in C57BL/6 mouse plasma at 10 mg/kg, po administered as single dose via gavage measured at 0.5 hrs post dose by LC-MS/MS analysis. The format is ADME, organism-based.
Data set [25] in a line: Drug level in C57BL/6 mouse plasma at 10 mg/kg, po administered as single dose via gavage measured at 3 hrs post dose by LC-MS/MS analysis. The format is ADME, organism-based.
Data set [26] deals with Mus musculus. The data set can be described thus: Anti-hepatic steatosis activity in HFD/CCl4-induced non-alcoholic hepatic steatosis C57BL/6 mouse model assessed as reduction in triglyceride level at 30 mg/kg, po administered once daily via gavage for 28 days measured at post last dose by […] assay. The format is ADME, organism-based. The settings on record: in vivo, 672 h.

As for `CC[C@H]1[C@@H](O)[C@@H]2[C@H](CC[C@]3(C)[C@@H]([C@H](C)CCc4nnn[nH]4)CC[C@@H]23)[C@@]2(C)CC[C@@H](O)C[C@@H]12`, the concentration giving a half-maximal response (EC50) (usually the concentration that produces a half-maximal response) on Bile acid receptor [1] was found to be 60 nM; in data set [2] it was 1770 nM. Further, the values for the Drug uptake in data set [3] and in data set [4] were 5693 nmol/kg and 1443 nmol/kg, respectively. This compound showed a concentration at 0.5 h in [5] of 868 nM. Moreover, the concentration at 3 h in data set [6] was 19 nM. Also, in [7], the Kp – broadly, the ratio of the level in a tissue or fluid to that in plasma or blood – at 0.5 h turned out to be 7. Also, the Kp at 3 h in data set [8] amounted to 76.
Take `CC[C@H]1[C@@H](O)[C@@H]2[C@H](CC[C@]3(C)[C@@H]([C@H](C)CCc4cc(O)no4)CC[C@@H]23)[C@@]2(C)CC[C@@H](O)C[C@@H]12`: the EC50 came out at 30 nM at Bile acid receptor [1] and 520 nM in [2]. Besides, the Efficacy in data set [9] came out at 121%. The Ratio EC50 in the data set filed under Homo sapiens stood at 17. Moreover, the figures for the Drug uptake in data set [3] and in data set [4] were 1896 nmol/kg and 257 nmol/kg, respectively. The concentration at 0.5 h in [5] is 43 nM. Besides, the concentration at 3 h in data set [6] amounted to 6 nM. Further, the Kp at 0.5 h in data set [7] was 44. In [8], the Kp at 3 h was 43.
Turning to `CCOC(=O)NCC[C@@H](C)[C@H]1CC[C@H]2[C@@H]3[C@H](O)[C@H](CC)[C@@H]4C[C@H](O)CC[C@]4(C)[C@H]3CC[C@]12C`, the 50% effective concentration (EC50) at Bile acid receptor [1] turned out to be 280 nM; at Bile acid receptor [10], 100 nM; in data set [2], 280 nM. For the same compound, the values for the Efficacy in data set [9] and in data set [11] were 138% and 174%, respectively. The Ratio EC50 in the data set filed under Homo sapiens was 1.
Regarding `CC[C@H]1[C@@H](O)[C@@H]2[C@H](CC[C@]3(C)[C@@H]([C@H](C)CCNC(=O)O[C@H]4CCOC4)CC[C@@H]23)[C@@]2(C)CC[C@@H](O)C[C@@H]12`, the half-maximal effective concentration (EC50) at Bile acid receptor [1] is 90 nM; on Bile acid receptor [10] it was 80 nM; in [2] it was 240 nM. Moreover, the figures for the Efficacy in data set [9] and in data set [11] were 109% and 167%, respectively. In the data set listed under Homo sapiens, the Ratio EC50 stood at 3.
`CC[C@H]1[C@@H](O)[C@@H]2[C@H](CC[C@]3(C)[C@@H]([C@H](C)CCC(=O)O)CC[C@@H]23)[C@@]2(C)CC[C@@H](O)C[C@@H]12` [OBETICHOLIC ACID]: the outcome with Mus musculus [12], with Mus musculus [13] and with Mus musculus [26] was Active. The Drug uptake was 711 nmol/kg in [3], 625 nmol/kg in data set [4], 1723 nmol/kg in data set [21] and 111 nmol/kg in data set [23]. Moreover, the concentration at 0.5 h came out at 151 nM in data set [5] and 478 nM in data set [24]. The concentration at 3 h in [6] worked out at 64 nM; in data set [25], 10 nM. The AUC (in general, the area under the concentration-time curve, a measure of exposure) in data set [14] was 0.713 µM·h; in the data set on Mus musculus [15], “Bld”; in the data set on Mus musculus [16], 18.059 µM·h. The Cmax (commonly the peak of the concentration-time curve) in data set [17] was 1540 nM; in the data set on Mus musculus [18] it was “Bld”; in the data set on Mus musculus [19], 838 nM. The Tmax (in general, the time from dosing to the highest level) amounted to 15 min in data set [20] and 480 min in the data set with Mus musculus [22].
Consider `CC[C@H]1[C@@H](O)[C@@H]2[C@H](CC[C@]3(C)[C@@H]([C@H](C)CCNC(=O)C(=O)O)CC[C@@H]23)[C@@]2(C)CC[C@@H](O)C[C@@H]12`, for which the values for the EC50 (on Bile acid receptor [1]; in data set [2]) were 20 nM and 240 nM, respectively. For the same compound, the Efficacy in [9] worked out at 109%. Besides, the Ratio EC50 in the data set listed under Homo sapiens amounted to 12. Further, the Drug uptake in data set [3] stood at 277 nmol/kg; in [4] it was 1363 nmol/kg. In data set [5], this compound showed a concentration at 0.5 h of 21 nM. This compound also yielded a concentration at 3 h in data set [6] of 38 nM. Also, the Kp at 0.5 h in data set [7] came to 13. The Kp at 3 h in data set [8] worked out at 36.
